From patent US20180073018A1, “COMPOSITIONS AND METHODS FOR SPECIFIC REACTIVATION OF HIV LATENT RESERVOIR” (priority 2015, published 2018)

Tests used:
Format in all cases: cell-based
[1] = test system: HIV-1 LTR promoter; experiment: dCas9-VPH/msgRNA (or SAHA) reactivation of latent LTR-eLuc reporter in TZM-bI cells; details: TZM-bI, transient transfection or lentivirus infection, 2 days
Procedure: Cells were plated in 96-well plate and the indicated MS2-gRNAs were cotransfected by Lipofectamine 3000 (FIG. 3A) or coinfected by lentiviruses (FIG. 3B, MOI=50) with pMSCV-LTR-dCas9-VP64-BFP plus pLV-MS2-p65-HSF1-GFP. Two days later, OneGlo luminescence assay was performed. The SIV MS2-gRNA-D was used as negative control. […] The gRNA-J has no effect due to 2 nucleotides mismatch to the LTR sequence from TZM-bI cells.
FIG. 8A, FIG. 8B, FIG. 8C, and FIG. 8D, depict the results of experiments of screening of MS2-mediated sgRNAs (msgRNAs) targeting the HIV-1 long terminal repeat (LTR) in the dCas9-synergistic activation mediator (SAM) system. FIG. 8A is a schematic illustration of SAM-VPH complex derived from dCas9-VP64 (V) and MS2-p65-HSF1 (PH) with msgRNAs. FIG. 8B is a graph showing similar activation of transfected EcoHIV-eLuc reporter by inducible (TRE) or constitutive (LTR) dCas9-VP64 expression in HEK293T cells. FIG. 8C is a graph showing similar reactivation of latent HIV-LTR-eLuc reporter in TZM-bI cells after either transient plasmid transfection by Lipofectamine 3000 or stable infection by lentivirus. […] The gRNA-J has no effect due to 2 nucleotides mismatch to the LTR sequence from TZM-bI cells. […]
FIG. 9A and FIG. 9B: TZM-bI cells were infected with dCas9-VPH and indicated msgRNA lentiviruses at 1 or 10 MOI and luciferase activity was measured at 2-21 days post-infection (dpi). […]
FIG. 12A, FIG. 12B, FIG. 12C: The dCas9-VPH stable TZM-bI cells were treated with SAHA or infected with indicated msgRNAs lentivirus for 2-4 d before luminescence reporter assay (FIG. 12A) and CELLTITER-GLO® luminescent cell viability assay (FIG. 12B). […]
Experiments were conducted to compare reactivation of HIV-LTR luciferase reporter in TZM-BI cells induced by gRNA/dCas9-VP64/MS2-p65-HSF1/delivered by either transient plasmid transfection (FIG. 3A) or stable lentivirus infection (FIG. 3B). […] Two days later, OneGlo luminescence assay was performed. […]

[2] = test system: HIV-1 LTR promoter; experiment: dCas9-VP64/sgRNA reactivation of latent LTR-luciferase reporter in TZM-bI cells; details: sgRNA/dCas9-VP64 cotransfection, 3 days, relative to empty sgRNA control
From the text: FIG. 1A, FIG. 1B, and FIG. 1C, depict results of experiments comprising HIV-1 LTR-gRNA screening for dCas9-VP64-induced reactivation of latent LTR-luciferase reporter in TZM-bI cells. FIG. 1A is a schematic illustration depicting HIV-gRNA target sites. FIG. 1B is a schematic depicting gRNA/dCas9-VP64 binding to a target region of HIV-LTR that drives luciferase expression in TZM-bI cells. FIG. 1C depicts the results of experiments investigating the reactivation of HIV-LTR (as measured by luciferase reporter) induced by the various gRNAs. […] After 3 days, the luminescence of the cell lysate was measured with OneGlo luminescence kit. […]
Cultured cells were transfected using lipofectamine3000 transfection or lentivirus infection. The firefly-luciferase reporter assay was used using Envision multiplate reader. Treated and controls were imaged using fluorescent microscopy and/or were analyzed using flow cytometry. […]
(§1) Cells were cultured in a 96-well plate and transfected or transduced with indicated vectors. To examine the eLuc reporter activity, the cell lysate was prepared using the ONE-Glo luciferase assay system (Promega) and luminescence was measured in a 2104 ENVISION® Multilabel Reader (PerkinElmer). […]

[3] = test system: HIV-1 LTR promoter; experiment: dCas9-VP64/MS2-p65-HSF1 (SAM, dCas9-VPH) with MS2-sgRNA: EcoHIV-eLuc reporter assay in HEK293T cells; details: MS2-sgRNA/dCas9-VP64/MS2-p65-HSF1, pEcoHIV-NL4-3-eLuc, MS2-p65-HSF1 only = 1.00
From the text: FIG. 2A, FIG. 2B, and FIG. 2C, depict results of experiments comprising HIV-1 LTR-MS2-gRNA screening for LTR reactivation by SAM complex dCas9-VP64/MS2-p65-HSF1 in HEK293T cells. FIG. 2A and FIG. 2B depict a schematic of complex formation at the target site, where the complex comprises MS2-binding gRNA, dCas9-VP64, and MS2-p65-HSF1. FIG. 2C is a graph depicting the results of experiments investigating the reactivation of HIV-LTR induced by the various MS2-binding gRNA using pEcoHIV-NL4-3-eLuc reporter assay. […]
as §1
Thus, the newly-developed MS2-mediated SAM system was applied (FIG. 8A), which combined dCas9-VP64 with MS2-p65-HSF1 clustered trans-activators, designated dCas9-VPH (Konermann et al., 2015, Nature 517:583-8). […] To determine if dCas9-VPH/msgRNAs induced a better reactivation of HIV-1 latency, HIV-latent TZM-bI cells was cotransfected or cotransduced with dCas9-VPH and indicated msgRNAs (FIG. 8C) and the latency-reversing capability was measured. […]

Substance	reactivation of HIV-LTR-luciferase reporter (in words) [1]	sgRNA TZM-bI Fold (LTR-luciferase reporter) [2]	MS2-sgRNA HEK293T Fold (EcoHIV-eLuc reporter) [3]
MS2-p65-HSF1: MS2 bacteriophage coat protein fused to p65 and HSF1 transactivation domains (SEQ ID NO: 108)	did not influence the basal activity	–	–
LTR-P	–	1.15 Fold	1.32 Fold
